# Measured values published in patent US11332712B2, “Cell culture media and method for culturing breast cancer cells” (UNIVERSITY OF MIAMI, priority 2013, dated 2022).
# Entries after “also recorded” stand apart in the source; their conditions may differ.
# Experiments:
# human breast tumor cells = test: Culture of human breast tumor cells, effect of medium components (Example 1); type: cell-based; details: preliminary experiments; compared to Retinol
# Procedure: The base WIT cell culture medium contains 0.1 mg/L Calciferol (vitamin D2) and this medium is supplemented with 2-5% fetal bovine serum (FBS) to culture human ovarian carcinoma cells (WIT-OC medium). It was hypothesized that both of these components should be removed from the cell culture medium for the successful culture of human breast cancer cells because FBS contains vitamins and hormones such as vitamin D and androgens. […] Thus, charcoal stripped fetal bovine serum (csFBS) was utilized to culture breast tumor cells because activated carbon removes non-polar material such as lipophilic (lipid-related) materials (virus, certain growth factors, hormones and cytokines) regardless of molecular weight but has little effect on salts, glucose, amino acids, etc. The WIT-OC medium also contained vitamin A acetate (Retinol) which is a weaker form of vitamin A, compared to all-trans-retinoic acid (ATRA).
# Thus, in order to formulate a cell culture medium optimized to culture human breast tumor cells, as opposed to ovarian tumors, and other tumors, a WIT cell culture medium was prepared without any vitamin D, vitamin A, or androgens, and this medium was supplemented 100 nM ATRA, and 0.5-2% charcoal stripped fetal bovine serum (csFBS). We refer to this medium as WIT-BC, or WIT-BCe when estrogen is added.
# [1] = system: breast cancer cell lines (T47D, ZR751, MCF7 and BT474); test: Breast cancer cell line proliferation assay with and without AR agonist (FIG. 8), trypan blue/Cellometer count; type: cell-based; details: 10 nM with 17 beta-Estradiol (10 nM), phenol-red free DMEM with 5% csFBS, 4 days
# Procedure: Four different breast cancer cell lines (T47D, ZR751, MCF7 and BT474) were cultured both with and without AR agonist […]. […] After 3 days, an AR agonist R1881 (10 nM) and 17 beta-Estradiol (10 nM) were added to the media. […] All the conditions were carried out in triplicate and the experiments were repeated at least twice.
SMILES,effect on growth/culture of breast tumor cells (human breast tumor cells),effect on breast cancer cell proliferation [1]
"CC1=C(/C=C/C(C)=C/C=C/C(C)=C/C(=O)O)C(C)(C)CCC1 [ATRA, all-trans-retinoic acid]",promoting the growth of the breast tumor cells; also recorded: needed for the optimum culture,–
"C[C@]1(O)CC[C@H]2[C@@H]3CCC4=CC(=O)CCC4=C3C=C[C@@]21C [R1881, methyltrienolone]",–,inhibitory effect
